# Results reported in patent US6071932A, “Carbazolypiperines as GABA uptake inhibitors” (British Technology Group Intercorporate Licensing Limited, priority 1995, dated 2000).
# Where a name gives a salt, the structure may show the parent alone.
# Test system: GABA uptake
# Assay: not given
# Conditions: oral; Yunger, L. M. et al. 1984; cited from earlier work
row,Compound,orally active inhibition of GABA uptake
1,"O=C(O)C1CCCN(CCC=C(c2ccccc2)c2ccccc2)C1 (stereo not drawn) [SK&F 89976A, N-(4,4-diphenyl-3-buten-1-yl)nipecotic acid]",orally active inhibitors of GABA uptake
2,"O=C(O)C1=CCCN(CCC=C(c2ccccc2)c2ccccc2)C1 [SK&F 100330A, N-(4,4-diphenyl-3-buten-1-yl)guvacine]",orally active inhibitors of GABA uptake
3,"O=C(O)CC1CCN(CCC=C(c2ccccc2)c2ccccc2)C1 (stereo not drawn) [SK&F 100561, N-(4,4-diphenyl-3-buten-1-yl)-homo-β-proline]",orally active inhibitors of GABA uptake
4,"O=C(O)C1CCCN(CCC=C(c2ccccc2)c2cccs2)C1 (stereo not drawn) [SK&F 100604J, N-(4-phenyl-4-(2-thienyl)-3-buten-1-yl)nipecotic acid]",orally active inhibitors of GABA uptake

# Target: T1, GABA uptake carrier (Rattus norvegicus, UniProt P31647)
# T1 construct: A crude membrane preparation was prepared from selected brain areas; from tissue; host or cells: crude membrane (synaptosomal) preparation from selected brain areas
# T1 sequence (P31647 1-627): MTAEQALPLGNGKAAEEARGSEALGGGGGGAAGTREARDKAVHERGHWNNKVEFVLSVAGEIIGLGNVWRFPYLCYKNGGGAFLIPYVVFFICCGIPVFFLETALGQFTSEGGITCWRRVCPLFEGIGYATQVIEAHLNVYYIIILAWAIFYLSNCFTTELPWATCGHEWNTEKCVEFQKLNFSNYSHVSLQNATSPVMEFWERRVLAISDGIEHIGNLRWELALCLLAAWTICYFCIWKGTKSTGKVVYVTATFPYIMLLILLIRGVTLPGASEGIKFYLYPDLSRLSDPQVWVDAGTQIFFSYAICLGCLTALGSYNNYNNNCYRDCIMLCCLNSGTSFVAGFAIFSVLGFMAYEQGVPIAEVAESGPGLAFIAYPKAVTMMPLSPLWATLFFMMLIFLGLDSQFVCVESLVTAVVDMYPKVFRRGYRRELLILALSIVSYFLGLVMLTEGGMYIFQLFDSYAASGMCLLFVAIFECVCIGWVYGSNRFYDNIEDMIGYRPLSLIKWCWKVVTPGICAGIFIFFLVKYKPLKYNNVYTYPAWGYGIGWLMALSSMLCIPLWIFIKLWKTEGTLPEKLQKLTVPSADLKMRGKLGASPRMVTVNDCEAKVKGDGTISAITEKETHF
# Assay: 3H-GABA uptake in crude brain membrane preparation in presence of NNC 05-0711
# Assay type: biochemical
# Conditions: NNC 05-0711 1 mM, 0.9 nM 3H-GABA + 25 nM GABA, pH 7.5, 30° C., 8 min, read-out: IC50 (nM) in vitro, Non-GABA uptake carrier mediated uptake of 3H-GABA
# Description: ^3 H-GABA uptake was measured by a modification of the method of Fjalland et al., (1978). A crude membrane preparation was prepared from selected brain areas by homogenization in 20 ml of ice-cold 0.32 M sucrose with a hand driven teflon/glass Potter-Elvehjem homogenizer. The homogenate was centrifuged at 4° C. for 10 min. at 1.000×g, and the pellet was discarded. The supernatant was recentrifuged at 4° C. for 20 min. at 20.000×g. The pellet was then homogenized in 50 volumes 0.32 M sucrose. To 300 μl uptake-buffer ([…], 15.3 mM KCl, 6.67 mM MgSO4, 3.83 mM CaCl2, 16.67 mM glucose, 66.67 mM Tris, pH 7.5 at 30° C.) was added 1-(2-(((diphenylmethylene)amino)oxy)ethyl)-1,2,5,6-tetrahydro-3-pyridinecarboxylic acid (NNC 05-0711) (1 mM final concentration), 100 μl test substance and 50 μl tissue suspension. The samples were mixed and incubated at 30° C. for 8 min. Then ^3 H-GABA (0.9 nM final concentration) and unlabelled GABA (25 nM final concentration) was added, and the incubation was continued for an additional 8 min. The reaction was terminated by rapid filtration through Whatman GF/F glass fiber filters under vacuum. The filters were then washed twice in 10 ml of ice-cold isotonic saline, and the tritium trapped on the filters was quantified by conventional scintillation spectroscopy. Non-GABA uptake carrier mediated uptake of ^3 H-GABA was determined in the presence of […].
row,Compound,IC50 [nM]
1,"C[C@@H](CN1CCC(O)(c2ccccc2)CC1)Cn1c2ccccc2c2ccccc21 [Compound 11, (S)-1-((3-(9H-Carbazol-9-yl)-2-methyl)-1-propyl)-4-ph-enylpiperidin-4-ol hydrochloride]",1480
2,"C[C@H](CN1CCC(O)(c2ccccc2)CC1)Cn1c2ccccc2c2ccccc21 [Compound 13, (R)-1-((3-(9H-Carbazol-9-yl)-2-methyl)-1-propyl)-4-phenylpiperidin-4-ol hydrochloride]",7860
3,"CCc1ccc2c(c1)c1ccccc1n2CCCN1CCC(O)(c2ccccc2)CC1 [Compound 16, 1-(3-(3-Ethyl-9H-carbazol-9-yl)-1-propyl)-4-phenylpiperidin-4-ol]",1700
4,"CC(Cl)CC(=O)n1c2ccccc2c2ccccc21 (stereo not drawn) [Compound 23, 1-(9H-Carbazol-9-yl)-3-chlorobutan-1-one]",3100

# Test system: GABA uptake
# Assay: not given
# Conditions: cited from earlier work
row,Compound,inhibition of GABA uptake from the synaptic cleft into presynaptic nerve terminals and glial cells
1,"O=C(O)C1CCCNC1 (stereo not drawn) [nipecotic acid, 3-piperidinecarboxylic acid]",well-known and potent inhibitor
